# Assay results as given in US6946459B2, “CRYSTALLINE FORMS OF 1S-[1ALPHA(2S*,3R*), 9ALPHA]6, 10-DIOXO-N-(2-ETHOXY-5-OXO-TETRAHYDRO-3-FURANYL)-9[[(1-ISOQUINOLYL) CARBONYL]AMINO]OCTAHYDRO-6H-PIRIDAZINO[1,2-A][1,2]DIAZEPIN-1-CARBOXAMIDE” (Aventis Pharma S. A., priority 1998, dated 2005).
# “Also recorded” adds a separate entry of the source.
# Columns and labels:
# [1] = Hygroscopicity curve (water sorption isotherm), Dynamic Vapor Sorption DVS 1; type: physicochemical; design: Sorption / Desorption: unit not given here; conditions: for Hygroscopicity (in words): sorption cycle / general statement
# Protocol: Hygroscopicity Curve (or Water Sorption Isotherm)
# The water sorption isotherms were obtained using a Dynamic Vapor Sorption DVS 1 device (Surface Measurements System Ltd) at a constant temperature and under a more or less hydrated nitrogen atmosphere. The degree of relative humidity (RH) of the atmosphere was modified in stages. The passage from one stage to the next is carried out when the weight of the sample to be analyzed has reached a constant value.
# [2] = Sample left 7 days in a chamber at 96% relative humidity (32° C.); type: physicochemical; conditions: 7 days at 96% relative humidity; for Hygroscopicity (in words): compared with form A
# Protocol: The non-hygroscopicity was confirmed by leaving a sample for 7 days in a chamber at 96% relative humidity (at 32° C.) An absorption of water of approximately 0.15% was observed. […] The same situation pertains regarding the amorphous form.
# [3] = RH 0.0 %, water sorption isotherm, constant temperature
# [4] = RH 0.0 %, water sorption isotherm, constant temperature, water uptake (%)
"Desorption [1, 3]","Sorption [1, 4]",Desorption ([1]; RH 12.0 %),Sorption ([1]; RH 12.0 %),Desorption ([1]; RH 21.0 %),Sorption ([1]; RH 21.0 %),Desorption ([1]; RH 32.0 %),Sorption ([1]; RH 32.0 %),Desorption ([1]; RH 43.0 %),Sorption ([1]; RH 43.0 %),Desorption ([1]; RH 51.0 %),Sorption ([1]; RH 51.0 %),Desorption ([1]; RH 57.0 %),Sorption ([1]; RH 57.0 %),Desorption ([1]; RH 66.0 %),Sorption ([1]; RH 66.0 %),Desorption ([1]; RH 75.0 %),Sorption ([1]; RH 75.0 %),Desorption ([1]; RH 80.0 %),Sorption ([1]; RH 80.0 %),Structure (SMILES),also measured
−0.11,0.00,1.42,1.41,2.33,2.36,3.14,3.23,3.75,3.88,4.13,4.26,4.40,4.53,4.75,4.92,5.08,5.27,5.30,5.45,"CCO[C@@H]1OC(=O)C[C@@H]1NC(=O)[C@@H]1CCCN2C(=O)CC[C@H](NC(=O)c3nccc4ccccc34)C(=O)N12 [form B, 1S-[1alpha (2R, 3S), 9alpha]6,10-dioxo-N-(2-ethoxy-5-oxo-tetrahydro-3-furanyl)-9[[(1-isoquinolyl)carbony]amino]octahydro-6H-pyridazino[1,2-a][1,2]diazepin-1-carboxamide]",Desorption ([1]; RH 90.0 %): 5.96; Sorption ([1]; RH 90.0 %): 5.93; Desorption ([1]; RH 96.0 %): 6.86; Sorption ([1]; RH 96.0 %): 6.86; Absorption of water [2]: 7%; Hygroscopicity (in words) [2]: more hygroscopic
−0.20,0.00,1.43,0.67,2.09,0.97,2.58,1.29,2.94,1.60,3.19,1.83,3.35,2.03,3.61,2.37,3.90,2.90,4.12,3.71,"CCO[C@@H]1OC(=O)C[C@@H]1NC(=O)[C@@H]1CCCN2C(=O)CC[C@H](NC(=O)c3nccc4ccccc34)C(=O)N12 [AMORPHOUS, 1S-[1alpha(2R, 3S), 9alpha]6, 10-dioxo-N-(2-ethoxy-5-oxo-tetrahydro-3-furanyl)-9[[(1-isoquinolyl)carbonyl]amino]octahydro-6H-pyridazino[1,2-a][1, 2]diazepin-1-carboxamide, reference compound]",Desorption ([1]; RH 90.0 %): 4.94; Sorption ([1]; RH 90.0 %): 5.11; Desorption ([1]; RH 96.0 %): 5.93; Sorption ([1]; RH 96.0 %): 5.93; Hygroscopicity (in words) ([1]; listed as Compound (I)): hygroscopic; Hygroscopicity (in words) [2]: more hygroscopic
0.11,0.00,0.12,0.03,0.14,0.05,0.19,0.07,0.21,0.09,0.22,0.11,0.21,0.13,0.21,0.14,0.21,0.14,0.21,0.16,CCO[C@@H]1OC(=O)C[C@@H]1NC(=O)[C@@H]1CCCN2C(=O)CC[C@H](NC(=O)c3nccc4ccccc34)C(=O)N12 [form A],"Desorption ([1]; RH 90.0 %): 0.19; Sorption ([1]; RH 90.0 %): 0.14; Desorption ([1]; RH 96.0 %): 0.06; Sorption ([1]; RH 96.0 %): 0.06; Hygroscopicity (in words) [1]: absence of hygroscopicity; also recorded: not hygroscopic; Water uptake during the sorption cycle ([1]; whole sorption cycle, RH 0 to 96 %): < 0.2%; Absorption of water [2]: approximately 0.15%"
